Source: patent publication US20220370416A1, “COMPOUNDS AND METHODS FOR TARGETED DEGRADATION OF KRAS” (Arvinas Operations, Inc., priority 2020, published 2022)

Tests used:
KRAS^G12C = KRAS^G12C (Homo sapiens, UniProt P01116, G12C); assay: KRAS^G12C degradation by immunoblot in NCI-H23 cells; type: cell-based; parameters: MRTX849-VHL bifunctional compounds engage and degrade endogenous KRAS^G12C in NCI-H2030 cells; endogenous in cells; host or cells: NCI-H2030, NCI-H358, MIA PaCa-2, SW1573, NCI-H23
Description: NCI-H2030 (CRL-5914), MIA PaCa-2 (CRL-1420), NCI-H23 (CRL-5800), NCI-H358 (CRL-5807), and HCT-116 (CCL-247) cells were obtained from ATCC, expanded immediately, and frozen down. Vials were thawed and used within 20 passages. SW1573 cells were a gift from Arvinas and were handled in the same manner. NCI-H2030, NCI-H23, and NCI-H358 were cultured in RPMI (ATCC30-2001) supplemented with 10% FBS (Biological Industries; cat. no. S1480) and 1% Penicillin-Streptomycin (ThermoFisher; cat. no. 15140122). HCT-116 cells were maintained in high glucose DMEM (ThermoFisher; cat. no. 11965084) supplemented as above. MIA PaCa-2 cells were cultured in high glucose DMEM supplemented with 10% FBS, 2.5% horse serum (ThermoFisher; cat. no. 26050-088; lot 2109875), and 1% Penicillin-Streptomycin. SW1573 cells were maintained in DMEM/F12 Nutrient Mix with GlutaMAX supplement (ThermoFisher; cat. no. 10565018) with 10% FBS and 1% Penicillin-Streptomycin added. DPBS (ThermoFisher; cat. no. 14190250) was used to wash cells and 0.25% Trypsin-EDTA (ThermoFisher; cat. no. […]) was used to detach cells for passaging. […] The VHL ligand was generously provided by Arvinas.
Between 2.5×10^5 and 6.0×10^5 cells were seeded into 6-well plates (Corning; cat. no. 353046). The next day, media was removed and cells were treated with 2.5 μM LC-2 for 1, 2, 4, 8, 12, or 24 hours. […] For 24-hour time course experiments, cells were treated at the indicated times and concurrently lysed in RIPA buffer supplemented as described previously. For longer time course experiments and time courses in which cells were treated with LC-2 or LC-2 Epimer, cells were concurrently treated with either compound, then lysed by scraping in RIPA buffer at the indicated time points.
Between 2.5×10^5 and 5.0×10^5 cells were seeded into 6-well plates. The next day cells were pretreated with DMSO, 500 μM or 1 mM VHL ligand, 1 μM epoxomicin, 1 μM […], or 100 nM […] bafilomycin A1 for 1 hour. Media was then removed and cells were treated with DMSO, 2.5 μM LC-2 plus DMSO, 2.5 μM LC-2 Epimer plus DMSO, or co-treated with 2.5 μM LC-2 and the corresponding competitor/inhibitor. H2030 cells were treated for 4 hours and H23 cells were treated for 24 hours, after which cells were lysed by scraping in RIPA buffer supplemented as described previously.
Cell lysates were clarified at 21000×g for 15 mins at 4° C. Protein levels were quantified using a 50:1 mixture of bicinchoninic acid solution (Millipore Sigma; cat. no. B9643) and 4% (w/v) copper(II) sulfate solution (Millipore Sigma; cat. no. C2284) incubated at 37° C. for 30 mins. Absorbance values at 560 nm were read on an EnVision 2101 Multilabel Reader (PerkinElmer). Proteins were separated using 26 well Criterion TGX precast 4-15% (cat. no. 5671085) or 8-16% (cat. no. 5671105) gradient midi gels. After separation, proteins were transferred to nitrocellulose or PVDF membranes at 76 V for 2 hours at 4° C. Blots were then blocked in 5% milk in tris-buffered saline with Tween-20 (TBST; 20 mM Tris, 150 mM NaCl, 0.02% Tween-20). After blocking, blots were incubated in primary antibody overnight (12-18 hours) at 4° C. or for 2 hours at room temperature with mild agitation at the manufacturer's indicated dilution in either 5% milk or 5% BSA in TBST. Blots were then washed thrice with TBST for 5 mins at room temperature. After washing, blots were incubated with 1:5,000-1:10,000 of donkey anti-rabbit (GE Life Sciences; NA934) or sheep anti-mouse (GE Life Sciences; NA931) secondary antibody diluted in 5% milk for 1 hour at room temperature with mild agitation. Blots were again washed thrice with TBST for 5 mins. Chemiluminescent signal was generated using Amersham ECL Prime Western Blotting Detection Reagant (GE Life Sciences; cat. no. RPN2232) or SuperSignal West Femto Maximum Sensitivity Substrate (ThermoFisher; cat. no. 34095). Images were obtained using a Bio-Rad ChemiDoc Imager.

Description for pErk: The ability of LC-2 to modulate Erk signaling was investigated in NCI-H2030 and NCI-H23 cells during a 24 hour dose response.
Signaling kinetics were monitored during a 24 hour time course in MIA PaCa2, NCI-H23, and SW1573 cells treated with 2.5 μM LC-2.
NCI-H2030 (CRL-5914), MIA PaCa-2 (CRL-1420), NCI-H23 (CRL-5800), NCI-H358 (CRL-5807), and HCT-116 (CCL-247) cells were obtained from ATCC, expanded immediately, and frozen down. Vials were thawed and used within 20 passages. SW1573 cells were a gift from Arvinas and were handled in the same manner. NCI-H2030, NCI-H23, and NCI-H358 were cultured in RPMI (ATCC30-2001) supplemented with 10% FBS (Biological Industries; cat. no. S1480) and 1% Penicillin-Streptomycin (ThermoFisher; cat. no. 15140122). HCT-116 cells were maintained in high glucose DMEM (ThermoFisher; cat. no. 11965084) supplemented as above. MIA PaCa-2 cells were cultured in high glucose DMEM supplemented with 10% FBS, 2.5% horse serum (ThermoFisher; cat. no. 26050-088; lot 2109875), and 1% Penicillin-Streptomycin. SW1573 cells were maintained in DMEM/F12 Nutrient Mix with GlutaMAX supplement (ThermoFisher; cat. no. 10565018) with 10% FBS and 1% Penicillin-Streptomycin added. DPBS (ThermoFisher; cat. no. 14190250) was used to wash cells and 0.25% Trypsin-EDTA (ThermoFisher; cat. no. 252000-056) was used to detach cells for passaging. […] The VHL ligand was generously provided by Arvinas.
Cell lysates were clarified at 21000×g for 15 mins at 4° C. Protein levels were quantified using a 50:1 mixture of bicinchoninic acid solution (Millipore Sigma; cat. no. B9643) and 4% (w/v) copper(II) sulfate solution (Millipore Sigma; cat. no. C2284) incubated at 37° C. for 30 mins. Absorbance values at 560 nm were read on an EnVision 2101 Multilabel Reader (PerkinElmer). […]

In the case of `C=C(F)C(=O)N1CCN(c2nc(OC[C@@H]3CCCN3CCCOCCC(=O)N[C@H](C(=O)N3C[C@H](O)C[C@H]3C(=O)NCc3ccc(-c4scnc4C)cc3)C(C)(C)C)nc3c2CCN(c2cccc4cccc(Cl)c24)C3)C[C@@H]1CC#N` [LC-2, (2S,4R)-1-((S)-2-(3-(3-((S)-2-(((7-(8-chloronaphthalen-1-yl)-4-((S)-3-(cyanomethyl)-4-(2-fluoroacryloyl)piperazin-1-yl)-5,6,7,8-tetrahydropyrido[3,4-d]pyrimidin-2-yl)oxy)methyl)pyrrolidin-1-yl)propoxy)propanamido)-3,3-dimethylbutanoyl)-4-hydroxy-N-(4-(4-methylthiazol-5-yl)benzyl)pyrrolidine-2-carboxamide], the Dmax (KRAS^G12C; NCI-H23) is reported as > 90%, the “KRAS, two-way ANOVA significance vs DMSO” value (KRAS^G12C; NCI-H23, 0.25 μM, FIG. 9B) is reported as “* (* p < 0.05)” and the “duration of KRAS degradation” value (KRAS^G12C; NCI-H23, 2.5 μM) is reported as “sustained up to 72 hours”. The “time at which KRAS^G12C began to rebound” value (KRAS^G12C; NCI-H23, 2.5 μM) was 72 h, the “time to maximal KRAS degradation” value (KRAS^G12C; NCI-H23, 2.5 μM, 6, 24, 48, 72 hours) was ≤ 24 h and the “KRAS, two-way ANOVA significance vs DMSO” value (KRAS^G12C; NCI-H23, 2.5 μM, 6 hours, FIG. 10B) was “** (** p < 0.01)”. For the same compound, the “KRAS, two-way ANOVA significance vs DMSO” value (KRAS^G12C; NCI-H23, 2.5 μM, 24 hours, FIG. 10B) was “**** (**** p < 0.001)”, the “KRAS, two-way ANOVA significance vs DMSO” value (KRAS^G12C; NCI-H23, 10 μM, FIG. 9B) was “N.S” and the DC50 (KRAS^G12C; NCI-H23, heterozygous KRAS^G12C) was 250 ± 80 nM. The KRAS degradation (KRAS^G12C; NCI-H23 cells, heterozygous) was > 50%, the pErk (pErk; NCI-H23, 2.5 μM LC-2, 6 and 24 hours) was “suppressed” and the pErk signaling (pErk; NCI-H23, 24 hour dose response) was “dose-dependent decrease in pErk”. For the same compound, the “total Erk levels” value (pErk; NCI-H23, 24 hour dose response) was “elevated in a dose-dependent manner”.
